Earlier results, collected in patent US20100227874A1, “REDUCTION OF OXIDATIVE STRESS DAMAGE DURING OR AFTER EXERCISE” (NESTEC S.A., priority 2007, published 2010).

Tested on: rat adipocytes
Details: insulin-potentiating epididymal fat-cell assay with rat adipocytes

Row | Structure (SMILES) | Insulin activity in vitro
1 | O=C(O[C@@H]1Cc2c(O)cc(O)cc2O[C@@H]1c1cc(O)c(O)c(O)c1)c1cc(O)c(O)c(O)c1 [epigallocatechin gallate] | enhance insulin activity
2 | O=C(O[C@@H]1Cc2c(O)cc(O)cc2O[C@@H]1c1ccc(O)c(O)c1)c1cc(O)c(O)c(O)c1 [epicatechin gallate] | enhance insulin activity
